Measured values from PubChem BioAssay AID2060614 (Molecular Pharmacology Branch, DTP, NCI, 2025).

System: 598228-144-R-J1-PDC complex spheroids, viability
Assay: Anticancer human tumor 598228-144-R-J1-PDC patient-derived serous endometrial adenocarcinoma cell line growth inhibition [CLK]
Conditions: for IC50: curve of first compound; for viability, T/C: stronger effect = lower value
How it was run: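 Patient-derived tumor cells grown as complex spheroids with HUVEC endothelial cells and mesenchymal stem cells, treated with drug combinations. Concentrations descend in half-log steps from near clinical Cmax, or from 10 microM if Cmax unknown.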

[1] = second compound 0.0316 µM, first compound 0.000949 µM
[2] = second compound 0.0316 µM, first compound 0.003 µM
[3] = second compound 0.0316 µM, first compound 0.00949 µM
[4] = second compound 0.0316 µM, first compound 0.03 µM
[5] = second compound 0.0316 µM, first compound 0.0949 µM
[6] = second compound 0.0316 µM, first compound 0.3 µM
[7] = second compound 0.1 µM, first compound 0.000949 µM
[8] = second compound 0.1 µM, first compound 0.003 µM
[9] = second compound 0.1 µM, first compound 0.00949 µM
[10] = second compound 0.1 µM, first compound 0.03 µM
[11] = second compound 0.1 µM, first compound 0.0949 µM
[12] = second compound 0.1 µM, first compound 0.3 µM
[13] = second compound 0.316 µM, first compound 0.000949 µM
[14] = second compound 0.316 µM, first compound 0.003 µM
[15] = second compound 0.316 µM, first compound 0.00949 µM
[16] = second compound 0.316 µM, first compound 0.03 µM
[17] = second compound 0.316 µM, first compound 0.0949 µM
[18] = second compound 0.316 µM, first compound 0.3 µM
[19] = second compound 1 µM, first compound 0.000949 µM
[20] = second compound 1 µM, first compound 0.003 µM
[21] = second compound 1 µM, first compound 0.00949 µM
[22] = second compound 1 µM, first compound 0.03 µM
[23] = second compound 1 µM, first compound 0.0949 µM
[24] = second compound 1 µM, first compound 0.3 µM
[25] = second compound 3.16 µM, first compound 0.000949 µM
[26] = second compound 3.16 µM, first compound 0.003 µM
[27] = second compound 3.16 µM, first compound 0.00949 µM
[28] = second compound 3.16 µM, first compound 0.03 µM
[29] = second compound 3.16 µM, first compound 0.0949 µM
[30] = second compound 3.16 µM, first compound 0.3 µM
[31] = second compound 10 µM, first compound 0.000949 µM
[32] = second compound 10 µM, first compound 0.003 µM
[33] = second compound 10 µM, first compound 0.00949 µM
[34] = second compound 10 µM, first compound 0.03 µM
[35] = second compound 10 µM, first compound 0.0949 µM
[36] = second compound 10 µM, first compound 0.3 µM
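Further: spheroids exposed to compounds for seven days before readout.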
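Wherever viability, T/C is given: 100% = DMSO vehicle control wells.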

Work on `C=CC(=O)Nc1cc(Nc2nccc(-c3cn(C)c4ccccc34)n2)c(OC)cc1N(C)CCN(C)C` + CN1CCN(c2cc(C(=O)Nc3cc4cc(-c5cnn(C)c5)ccc4cn3)ccn2)CC1 yielded an IC50 (second compound 0.0316 µM) greater than 300 nM, an IC50 (second compound 0.1 µM) greater than 300 nM and an IC50 (second compound 0.316 µM) of less than 0.949 nM. For the same compound, the IC50 (second compound 1 µM) was less than 0.949 nM, the IC50 (second compound 3.16 µM) was less than 0.949 nM and the IC50 (second compound 10 µM) was less than 0.949 nM. The viability, T/C [1] was 133%, the viability, T/C [2] was 108% and the viability, T/C [3] was 114%. It also gave a viability, T/C [4] of 117%, a viability, T/C [5] of 108% and a viability, T/C [6] of 98.8%. The viability, T/C [7] was 127%, the viability, T/C [8] was 126% and the viability, T/C [9] was 116%. It also gave a viability, T/C [10] of 112%, a viability, T/C [11] of 103% and a viability, T/C [12] of 91.9%. For the same compound, the viability, T/C [13] was 19.6%, the viability, T/C [14] was 17% and the viability, T/C [15] was 17.1%. It also gave a viability, T/C [16] of 15.4%, a viability, T/C [17] of 12.5% and a viability, T/C [18] of 14.6%. The viability, T/C [19] was 1.75%, the viability, T/C [20] was 2.14% and the viability, T/C [21] was 6.03%. The viability, T/C [22] was 1.51%, the viability, T/C [23] was 1.29% and the viability, T/C [24] was 3.97%. For the same compound, the viability, T/C [25] was 1.65%, the viability, T/C [26] was 1.56% and the viability, T/C [27] was 2.1%. It also gave a viability, T/C [28] of 1.72%, a viability, T/C [29] of 2.58% and a viability, T/C [30] of 2.49%. It also gave a viability, T/C [31] of 1.18%, a viability, T/C [32] of 1.02% and a viability, T/C [33] of 1.77%. It also gave a viability, T/C [34] of 1.25%, a viability, T/C [35] of 5.91% and a viability, T/C [36] of 2.52%.

For `CC(C)CC(NC(=O)C(Cc1ccccc1)NC(=O)c1cnccn1)B(O)O` (centres undefined) + CNC(=O)c1ccc(Nc2nc(OC3CCCC3)c3c(-c4ccc5nc(C)oc5c4)c[nH]c3n2)c(OC)c1, the IC50 (second compound 0.0316 µM) was 4.68 nM, the IC50 (second compound 0.1 µM) was 5.05 nM and the IC50 (second compound 0.316 µM) was 3.47 nM. For the same compound, the IC50 (second compound 1 µM) was 2.18 nM, the IC50 (second compound 3.16 µM) was 2.08 nM and the IC50 (second compound 10 µM) was 1.96 nM. For the same compound, the viability, T/C [1] was 111%, the viability, T/C [2] was 79.8% and the viability, T/C [3] was 2.81%. For the same compound, the viability, T/C [4] was 0.55%, the viability, T/C [5] was 0.7% and the viability, T/C [6] was 0.37%. For the same compound, the viability, T/C [7] was 127%, the viability, T/C [8] was 88.8% and the viability, T/C [9] was 3.14%. It also gave a viability, T/C [10] of 0.58%, a viability, T/C [11] of 0.44% and a viability, T/C [12] of 0.49%. For the same compound, the viability, T/C [13] was 116%, the viability, T/C [14] was 56.7% and the viability, T/C [15] was 3.51%. It also gave a viability, T/C [16] of 0.83%, a viability, T/C [17] of 0.51% and a viability, T/C [18] of 0.91%. For the same compound, the viability, T/C [19] was 128%, the viability, T/C [20] was 19.7% and the viability, T/C [21] was 1.31%. For the same compound, the viability, T/C [22] was 0.56%, the viability, T/C [23] was 0.77% and the viability, T/C [24] was 1.17%. For the same compound, the viability, T/C [25] was 128%, the viability, T/C [26] was 13.9% and the viability, T/C [27] was 0.9%. For the same compound, the viability, T/C [28] was 0.44%, the viability, T/C [29] was 2.9% and the viability, T/C [30] was 1.57%. The viability, T/C [31] was 115%, the viability, T/C [32] was 11.9% and the viability, T/C [33] was 2.24%. For the same compound, the viability, T/C [34] was 1.62%, the viability, T/C [35] was 0.46% and the viability, T/C [36] was 2.11%.
